Results reported in publication PMC12384008, “Assessment of Biological Activity of Low Molecular Weight 1,4-Benzoquinone Derivatives” (Biomolecules, 2025).
“And” between values parts separate entries of the source, which are not always exact repeats. Identical values can stand only once. Like-named read-outs stand apart in the source and are kept apart here.

Key:
[1] = FRAP assay (ferric-reducing antioxidant power); conditions: 50 and 100 μM
Excerpt: All chemicals for FRAP antioxidant activity measurements were purchased from Sigma Aldrich (St. Louis, MO, USA), except for FeCl3 and tripyridyltriazine (TPTZ), which were purchased from Kemika, Zagreb, Croatia, and Fluka, Buchs, Switzerland, respectively.
A ferric-reducing antioxidant power (FRAP) assay was used to determine the antioxidant capacity of tested benzoquinones, following a slightly modified protocol by Benzie and Strain [41, 42]. The water-soluble derivative of vitamin E (Trolox) and butylated hydroxytoluene (BHT) were used as standard antioxidants. […] All absorbance readouts were recorded at 593 nm against a blank and corrected for the value of absorbance of corresponding benzoquinone alone. All measurements were performed in three independent experiments. FRAP values were calculated using a standard curve for FeSO4 × 7H2O. All readouts were recorded on a plate reader (SpectraMax iD3, Molecular Devices, LLC, San Jose, CA, USA).

[2] = biological target: T1, purified native human BChE (Homo sapiens, UniProt P06276); assay: biochemical; assay type: biochemical; conditions: for SI = Ki(AChE)/Ki(BChE): selectivity index
T1 construct: purified native human BChE; tissue gift of Dr Florian Nachon (IRBA, Brétigny-sur-Orge, France)
T1 sequence (P06276 29-602): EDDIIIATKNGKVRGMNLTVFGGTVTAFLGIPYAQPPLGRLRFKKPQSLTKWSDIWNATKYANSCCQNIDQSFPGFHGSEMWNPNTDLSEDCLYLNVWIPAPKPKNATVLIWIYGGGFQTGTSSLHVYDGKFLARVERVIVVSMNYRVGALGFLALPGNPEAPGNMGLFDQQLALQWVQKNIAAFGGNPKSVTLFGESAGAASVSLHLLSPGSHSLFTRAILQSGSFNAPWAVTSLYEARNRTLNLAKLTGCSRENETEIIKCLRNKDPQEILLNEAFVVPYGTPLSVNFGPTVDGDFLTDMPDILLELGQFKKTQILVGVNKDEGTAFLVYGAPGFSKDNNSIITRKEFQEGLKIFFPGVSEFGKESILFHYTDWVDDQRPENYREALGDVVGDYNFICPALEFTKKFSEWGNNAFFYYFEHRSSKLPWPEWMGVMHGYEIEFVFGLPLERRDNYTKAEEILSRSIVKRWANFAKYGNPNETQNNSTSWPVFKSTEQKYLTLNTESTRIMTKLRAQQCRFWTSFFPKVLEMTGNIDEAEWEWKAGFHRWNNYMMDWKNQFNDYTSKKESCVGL

[3] = parameters: method as in doi:10.2298/JSC220304044D; conditions: previous study ref 56; cited from earlier work
[4] = ORAC assay (peroxyl radical antioxidant activity); conditions: benzoquinone 50 µM
Procedure: For the determination of antioxidant capacity by ORAC method, the commercially available OxiSelect™ Oxygen Radical Antioxidant Capacity (ORAC) Activity Assay kit was used (cat. no. STA-345, Cell Biolabs, Inc., San Diego, CA, USA).
The ability of benzoquinones to prevent excessive oxidation caused by ROS was tested using the commercially available OxiSelect™ Oxygen Radical Antioxidant Capacity (ORAC) Activity Assay kit (cat. no. STA-345, Cell Biolabs, Inc., San Diego, CA, USA), following the manufacturer’s protocol with slight adjustments concerning the antioxidant standard final concentrations. Stock solutions of benzoquinones were prepared in DMSO while 5 mM Trolox (used as an antioxidant standard) was provided by the manufacturer as a solution, and their further dilutions were carried out in 50% v/v acetone. Benzoquinones (50 µM) and Trolox (2.5–50 µM) were incubated with 1x Fluorescein Solution in 96-well black microplates at 37 °C for 30 min. After incubation time, Free Radical Initiator Solution was added. The sample reading was performed at 37 °C with an excitation wavelength of 480 nm and an emission wavelength of 520 nm. […] Net AUC values were compared to a Trolox standard curve and antioxidant capacity was presented as Trolox equivalent (TE) concentrations. All readouts were recorded on a plate reader (SpectraMax iD3, Molecular Devices, LLC, San Jose, CA, USA). Calculations were performed using the statistical package GraphPadPrism 8 (Graph Pad Inc, San Diego, CA, USA).
The ORAC assay was used to evaluate the ability of 1,4-benzoquinone derivatives to prevent oxidative damage caused by generation of ROS. In this assay, the quenching of the fluorescent probe (fluorescein) over time by the peroxyl radicals generated by the Free Radical Initiator Solution was monitored. Since the antioxidant capacity of benzoquinones correlates with the fluorescence decay, the peroxyl radical antioxidant activity of the selected compounds was determined by comparing the antioxidant standard curve of Trolox and was expressed as TE (Trolox equivalents)/µM [58].

[5] = biological target: T2, recombinant human AChE (Homo sapiens, UniProt P22303); assay: Inhibition of AChE (modified Ellman method, Hunter–Downs evaluation); assay type: biochemical; conditions: for AChE type of inhibition (in words): according to Hunter–Downs plot; for fold higher AChE inhibition potency than meta position counterpart: para compounds 5 and 3 vs meta compounds 4 and 2; for times less potent as inhibitor of AChE than donepezil: compared to donepezil Ki of ref 50; for times less potent as inhibitor of AChE than galantamine: compared to galantamine Ki of ref 50; as to AChE Ki: ATCh 0.05–0.50 mM
T2 construct: gift of Dr Florian Nachon (IRBA, Brétigny-sur-Orge, France)
T2 sequence (P22303 32-614): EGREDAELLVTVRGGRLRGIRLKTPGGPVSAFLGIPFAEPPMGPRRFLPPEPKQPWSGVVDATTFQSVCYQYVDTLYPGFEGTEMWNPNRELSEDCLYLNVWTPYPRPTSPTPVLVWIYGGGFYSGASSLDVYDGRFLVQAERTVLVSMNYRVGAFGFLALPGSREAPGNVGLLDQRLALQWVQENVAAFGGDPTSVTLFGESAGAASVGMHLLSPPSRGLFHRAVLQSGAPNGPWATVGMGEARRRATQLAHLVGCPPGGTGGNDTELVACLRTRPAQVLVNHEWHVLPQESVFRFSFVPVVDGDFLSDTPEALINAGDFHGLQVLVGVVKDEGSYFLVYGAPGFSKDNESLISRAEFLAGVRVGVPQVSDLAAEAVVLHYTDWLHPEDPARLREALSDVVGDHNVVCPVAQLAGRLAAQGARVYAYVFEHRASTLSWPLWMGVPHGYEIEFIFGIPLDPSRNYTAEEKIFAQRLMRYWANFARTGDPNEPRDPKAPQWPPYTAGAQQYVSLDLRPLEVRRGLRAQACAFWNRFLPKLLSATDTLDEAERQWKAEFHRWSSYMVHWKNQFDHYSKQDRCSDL
Procedure: All measurements of cholinesterase activity were performed in 0.1 M sodium phosphate buffer (pH 7.4). Acetylthiocholine (ATCh), used as a substrate, and thiol reagent 5,5′-dithiobis (2-nitrobenzoic acid) (DTNB) were purchased from Sigma–Aldrich, St. Louis, MO, USA. ATCh was dissolved in water and DTNB in sodium phosphate buffer. Stock solutions of compounds were prepared in DMSO (Gram-mol, Zagreb, Croatia), and all further dilutions were carried out in water. As the source of AChE and BChE, purified native human BChE and recombinant human AChE, both kindly provided by Dr Florian Nachon (Département de Toxicologie, Armed Forces Biomedical Research Institute (IRBA), Brétigny-sur-Orge, France), were used. Both enzymes were diluted in a phosphate buffer containing 0.1% BSA, while further dilutions were in a phosphate buffer with 0.01% BSA.
Enzyme activity measurements were carried out spectrophotometrically using a slightly modified Ellman method, as previously described. […] At least three inhibitor concentrations were used at each substrate concentration in at least three experiments. To calculate the enzyme inhibitor dissociation constants (Ki), the Hunter–Downs equation and the linear regression analysis were used:Ki,app = (vi∙i)/(v0 − vi) = Ki + Ki/KS s where Ki,app stands for the apparent inhibition constant and KS for the enzyme–substrate dissociation constant.
The final content of DMSO in measurements was up to 0.4%, and inhibitory reactions containing more than 0.1% of DMSO were corrected for control reactions containing a corresponding concentration of DMSO. No side interactions of the tested compounds with ATCh or DTNB were detected. Measurements were performed at 25 °C and wavelength λ = 412 nm on a Tecan Infinite M200Pro (Tecan Austria GmbH, Salzburg, Austria), and for all calculations, the statistical package GraphPadPrism 8 (Graph Pad Inc., San Diego, CA, USA) was used.
The selectivity index (SI) was determined using the following ratio: SI = Ki(AChE)/Ki(BChE).

[6] = biological target: T3, human recombinant β-secretase (BACE1) (Homo sapiens, UniProt P56817); assay: Inhibition of BACE1 (spectrofluorimetric method); assay type: biochemical; conditions: 50 μM compound; three independent measurements ± SD
T3 construct: purchased Sigma Aldrich, St. Louis, MO, USA S4195
T3 sequence (P56817 46-501): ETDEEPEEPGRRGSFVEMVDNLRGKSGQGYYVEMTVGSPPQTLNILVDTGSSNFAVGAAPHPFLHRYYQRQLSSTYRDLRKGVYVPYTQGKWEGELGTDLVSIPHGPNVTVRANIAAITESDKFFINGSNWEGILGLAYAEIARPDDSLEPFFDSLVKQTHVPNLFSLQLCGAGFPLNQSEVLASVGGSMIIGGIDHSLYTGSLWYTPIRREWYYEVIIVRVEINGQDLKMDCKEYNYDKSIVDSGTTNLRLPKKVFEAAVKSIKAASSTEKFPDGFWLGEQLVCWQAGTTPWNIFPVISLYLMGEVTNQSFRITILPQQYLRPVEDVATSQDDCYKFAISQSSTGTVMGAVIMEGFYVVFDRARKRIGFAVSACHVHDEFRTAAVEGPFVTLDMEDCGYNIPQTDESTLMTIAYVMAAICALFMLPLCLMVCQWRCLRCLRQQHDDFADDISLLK
Procedure: For the determination of BACE1 activity, a human recombinant β-secretase (BACE1) (cat. no. S4195, Sigma Aldrich, St. Louis, MO, USA) as the source of the enzyme and 7-Methoxycoumarin-4-acetyl-[Asn670, Leu671]-Amyloid β/A4 Precursor Protein 770 Fragment 667–676(2,4-dinitrophenyl)Lys-Arg-Arg amide (cat. no. A1472, Sigma Aldrich, St. Louis, MO, USA) as the substrate were used. All measurements were conducted in 50 mM sodium acetate buffer (pH 4.5) with 0.005% Triton X-100. Commercially available β-secretase Inhibitor III (cat. no. 565780, EMD Millipore Corp., Billerica, MA, USA) was used as positive control.
BACE1 activity was determined using a slightly modified spectrofluorimetric method, as described in our previous work. Stock solutions of tested compounds were prepared in DMSO, and further dilutions were carried out in 50 mM sodium acetate buffer (pH 4.5) containing 0.005% Triton X-100. […] To eliminate any potential influence of benzoquinone and/or buffer on the intensity of fluorescence signal, non-enzymatic (buffer, substrate, and benzoquinones) and blank reactions (buffer and substrate only) were also measured and subtracted from inhibition and control reaction, respectively. As a positive control of BACE1 inhibition, commercially available β-secretase Inhibitor III (EMD Millipore Corp., Billerica, MA, USA) was used (5 µM), which inhibited over 90% of BACE1 activity, corresponding to the manufacturer’s data. All fluorescence signal readouts were recorded at room temperature (25 °C) at zero and two hours after incubation at 37 °C, on a plate reader (SpectraMax iD3, Molecular Devices, LLC, San Jose, CA, USA) with excitation at 320 nm and emission at 405 nm.

[7] = 400 μM compound (maximum concentration used), 0.1 mM ATCh

SMILES | SI = Ki(AChE)/Ki(BChE) [2] | ORAC value, TE (Trolox equivalents) [4] | Ki ([2]; read-out: BChE Ki) | Ki ([5]; read-out: AChE Ki) | inhibition at 50 µM [6] | other results
CC(C)(C)C1=CC(=O)C=CC1=O [Compound 1, tert-butyl-1,4-benzoquinone] | 0.95 | 16.7 ± 0.1 µM |  |  |  | FRAP antioxidant activity compared to standard antioxidants Trolox and BHT [1]: approximately three times less potent than BHT; Ki [2]: 55 ± 5 µM; DPPH antioxidant activity relative to ascorbic acid [3]: approximately twice as potent as ascorbic acid; Ki [5]: 52 ± 6 µM
CC(C)(C)C1=CC(=O)C=C(SCCO)C1=O [Compound 2] | 2.4 |  | 33 ± 1 µM | 80 ± 7 µM |  | AChE type of inhibition (in words) [5]: mixed
CC(C)(C)C1=CC(=O)C(SCCO)=CC1=O [Compound 3] | 6.5 | 23.9 ± 1.6 µM | 8.8 ± 0.8 µM | 57 ± 4 µM | 5.7% | fold higher AChE inhibition potency than meta position counterpart [5]: approximately 1.7
CC(C)(C)C1=CC(=O)C=C(SC2CCCC2)C1=O [Compound 4] | 1.9 |  | 30 ± 6 µM | 56 ± 8 µM |  | 
CC(C)(C)C1=CC(=O)C(SC2CCCC2)=CC1=O [Compound 5] | 5.6 | 11.0 ± 0.3 µM | 5.2 ± 0.7 µM | 29 ± 5 µM | 11 ± 2% | AChE type of inhibition (in words) [5]: competitive; times less potent as inhibitor of AChE than donepezil [5]: ~1166; times less potent as inhibitor of AChE than galantamine [5]: about 54; fold higher AChE inhibition potency than meta position counterpart [5]: approximately 1.7
CC(C)(C)C1=CC(=O)C=C(Sc2ccccc2)C1=O [Compound 6] | 7.6 |  | 18 ± 4 µM | 136 ± 13 µM |  | DPPH antioxidant activity relative to ascorbic acid [3]: approximately twice as potent as ascorbic acid
CC(C)(C)C1=CC(=O)C=C(Sc2ccc(O)cc2)C1=O [Compound 7] | 1.6 | ≥50 µM | 23 ± 2 µM | 37 ± 4 µM | 16.7 ± 2.8% | 
COc1ccc(SC2=CC(=O)C=C(C(C)(C)C)C2=O)cc1 [Compound 8] | 2.9 | 3.6 ± 0.6 µM | 29 ± 3 µM | 85 ± 5 µM |  | 
CC(C)(C)C1=CC(=O)C=C(SCCc2ccccc2)C1=O [Compound 9] | 0.96 | 5.2 ± 0.0 µM | 25 ± 3 µM | 24 ± 1 µM | 27.4% | AChE type of inhibition (in words) [5]: non-competitive; times less potent as inhibitor of AChE than donepezil [5]: ~1166; times less potent as inhibitor of AChE than galantamine [5]: about 54
CC(C)(C)C1=CC(=O)C=C(Sc2ccc3ccccc3c2)C1=O [Compound 10] | 0.81 | 9.3 ± 0.5 µM | 37 ± 5 µM | 30 ± 3 µM | 26.2% | AChE type of inhibition (in words) [5]: mixed-type
CC(C)(C)C1=CC(=O)C2=C(SCCS2)C1=O [Compound 11] |  |  |  |  |  | DPPH antioxidant activity relative to ascorbic acid [3]: approximately twice as potent as ascorbic acid
CNC1=CC(=O)C(C(C)(C)C)=CC1=O [Compound 12] |  |  | 228 ± 56 µM |  |  | AChE inhibition ([5]; any of the tested concentrations): did not inhibit AChE
CNC1=CC(=O)C=C(C(C)(C)C)C1=O [Compound 13] |  |  |  |  |  | BChE inhibitory activity [2, 7]: did not show any inhibitory activity; AChE inhibitory activity [5, 7]: did not show any inhibitory activity
CC(C)(C)C1=CC(=O)C(N2CCC[C@H]2C(=O)O)=CC1=O [Compound 14] | 0.58 | 19.7 ± 1.6 µM | 36 ± 2 µM | 21 ± 1 µM | 10.1 ± 2% | times less potent as inhibitor of AChE than donepezil [5]: ~1166; times less potent as inhibitor of AChE than galantamine [5]: about 54
CC(C)(C)C1=CC(=O)C=C(N[C@@H](Cc2ccccc2)C(=O)O)C1=O [Compound 15] | 1.7 | 43.2 µM and 43.2 ± 1.6 µM | 34 ± 2 µM | 59 ± 5 µM | 15 ± 3.8% | 
